Tested on: MV-4-11 cells
Assay: Gene expression microarray analysis (Affymetrix PrimeView) and GSEA
Format: cell-based, human
Parameters: RFU PODN (11730768_x_at) / Fold change /veh PODN (11730768_x_at) / RFU LINC00158 (11744669_a_at) / Fold change /veh LINC00158 (11744669_a_at) / RFU DUSP10 (11751237_a_at) / Fold change /veh DUSP10 (11751237_a_at) / RFU ID3 (11757404_x_at) / Fold change /veh ID3 (11757404_x_at) / RFU PLEKHG5 (11737974_s_at) / Fold change /veh PLEKHG5 (11737974_s_at) / RFU LRRC4B (11730491_at) / Fold change /veh LRRC4B (11730491_at) / RFU GIMAP4 (11747438_a_at) / Fold change /veh GIMAP4 (11747438_a_at) / RFU KRT8 (11758183_x_at) / Fold change /veh KRT8 (11758183_x_at) / RFU CNN1 (11734310_a_at) / Fold change /veh CNN1 (11734310_a_at) / RFU VPS37D (11726825_at) / Fold change /veh VPS37D (11726825_at) / RFU C10orf10 (11716522_x_at) / Fold change /veh C10orf10 (11716522_x_at) / RFU KIR2DL2 /// KIR2DL4 /// KIR2DL5A /// KIR2DL5B /// KIR2DS1 /// KIR2DS2 /// KIR2DS3 /// KIR2DS4 /// KIR3DL3 /// KIR3DL3 /// KIR3DS1 (11738374_at) / Fold change /veh KIR2DL2 /// KIR2DL4 /// KIR2DL5A /// KIR2DL5B /// KIR2DS1 /// KIR2DS2 /// KIR2DS3 /// KIR2DS4 /// KIR3DL3 /// KIR3DL3 /// KIR3DS1 (11738374_at) / RFU C1QL1 (11718748_at) / Fold change /veh C1QL1 (11718748_at) / RFU TMPRSS4 (11747572_a_at) / Fold change /veh TMPRSS4 (11747572_a_at) / RFU HAMP (11756126_x_at) / Fold change /veh HAMP (11756126_x_at) / RFU RNFT2 (11725882_a_at) / Fold change /veh RNFT2 (11725882_a_at) / RFU NR4A2 (11747474_a_at) / Fold change /veh NR4A2 (11747474_a_at) / RFU ABCC12 (11746883_a_at) / Fold change /veh ABCC12 (11746883_a_at) / RFU TMEM136 (11760407_x_at) / Fold change /veh TMEM136 (11760407_x_at) / RFU CLDN22 /// WWC2 (11732394_at) / Fold change /veh CLDN22 /// WWC2 (11732394_at) / RFU HLA-DPB1 (11760878_x_at) / Fold change /veh HLA-DPB1 (11760878_x_at) / RFU SPINT1 (11716480_a_at) / Fold change /veh SPINT1 (11716480_a_at) / RFU GAP43 (11754022_s_at) / Fold change /veh GAP43 (11754022_s_at) / RFU A4GNT (11735810_at) / Fold change /veh A4GNT (11735810_at) / RFU PRB3 (11715151_x_at) / Fold change /veh PRB3 (11715151_x_at) / RFU TUBB4B (11761932_at) / Fold change /veh TUBB4B (11761932_at) / RFU CAPN14 (11732068_a_at) / Fold change /veh CAPN14 (11732068_a_at) / RFU TMCC2 (11721928_a_at) / Fold change /veh TMCC2 (11721928_a_at) / RFU IRGQ (11745062_a_at) / Fold change /veh IRGQ (11745062_a_at) / RFU FAM174B (11720279_a_at) / Fold change /veh FAM174B (11720279_a_at) / RFU TMPRSS4 (11748680_a_at) / Fold change /veh TMPRSS4 (11748680_a_at) / RFU FAM212B (11763350_a_at) / Fold change /veh FAM212B (11763350_a_at) / RFU PLEKHG5 (11743358_a_at) / Fold change /veh PLEKHG5 (11743358_a_at) / RFU ZSCAN30 (11745921_a_at) / Fold change /veh ZSCAN30 (11745921_a_at) / RFU CMKLR1 (11741424_a_at) / Fold change /veh CMKLR1 (11741424_a_at) / RFU LOC101060620 /// MAPK8IP1 (11723275_at) / Fold change /veh LOC101060620 /// MAPK8IP1 (11723275_at) / RFU SPTSSB (11747773_x_at) / Fold change /veh SPTSSB (11747773_x_at) / RFU PRSS12 (11739890_at) / Fold change /veh PRSS12 (11739890_at) / RFU BIN1 (11741810_x_at) / Fold change /veh BIN1 (11741810_x_at) / RFU WNT11 (11732464_a_at) / Fold change /veh WNT11 (11732464_a_at) / RFU C10orf10 (11716521_a_at) / Fold change /veh C10orf10 (11716521_a_at) / RFU C5orf56 (11738089_at) / Fold change /veh C5orf56 (11738089_at) / RFU CYB561 (11721691_x_at) / Fold change /veh CYB561 (11721691_x_at) / RFU ANKRD19P (11752326_a_at) / Fold change /veh ANKRD19P (11752326_a_at) / RFU OR2T12 /// OR2T33 /// OR2T8 (11738714_s_at) / Fold change /veh OR2T12 /// OR2T33 /// OR2T8 (11738714_s_at) / RFU VCAN (11748164_a_at) / Fold change /veh VCAN (11748164_a_at) / RFU JSRP1 (11732532_at) / Fold change /veh JSRP1 (11732532_at) / RFU KRTAP10-11 (11738290_x_at) / Fold change /veh KRTAP10-11 (11738290_x_at) / RFU MYO3A (11730013_a_at) / Fold change /veh MYO3A (11730013_a_at) / RFU EBF3 (11725865_a_at) / Fold change /veh EBF3 (11725865_a_at) / RFU CAMK2N1 (11719241_x_at) / Fold change /veh CAMK2N1 (11719241_x_at) / RFU C5orf56 (11738088_a_at) / Fold change /veh C5orf56 (11738088_a_at) / RFU OLFML3 (11715873_a_at) / Fold change /veh OLFML3 (11715873_a_at) / RFU LOC100653217 /// NTM (11731650_a_at) / Fold change /veh LOC100653217 /// NTM (11731650_a_at) / RFU MAPK11 (11762145_a_at) / Fold change /veh MAPK11 (11762145_a_at) / RFU FIZ1 (11724087_x_at) / Fold change /veh FIZ1 (11724087_x_at) / RFU OASL (11726364_x_at) / Fold change /veh OASL (11726364_x_at) / RFU SOX15 (11748057_x_at) / Fold change /veh SOX15 (11748057_x_at) / RFU CD79A (11719716_a_at) / Fold change /veh CD79A (11719716_a_at) / RFU HIST1H1D (11736915_at) / Fold change /veh HIST1H1D (11736915_at) / RFU CASKIN2 (11723855_a_at) / Fold change /veh CASKIN2 (11723855_a_at) / RFU LOC730098 (11760151_x_at) / Fold change /veh LOC730098 (11760151_x_at) / RFU OR4N2 (11742367_at) / Fold change /veh OR4N2 (11742367_at) / RFU PRRT2 (11749266_a_at) / Fold change /veh PRRT2 (11749266_a_at) / RFU SNX32 (11753110_a_at) / Fold change /veh SNX32 (11753110_a_at) / RFU CDHR5 (11726645_a_at) / Fold change /veh CDHR5 (11726645_a_at) / RFU RCAN1 (11760418_a_at) / Fold change /veh RCAN1 (11760418_a_at) / RFU FAM167A (11723789_a_at) / Fold change /veh FAM167A (11723789_a_at) / RFU FAM26E (11764081_at) / Fold change /veh FAM26E (11764081_at) / RFU ISYNA1 (11749810_s_at) / Fold change /veh ISYNA1 (11749810_s_at) / RFU ACY1 (11761880_at) / Fold change /veh ACY1 (11761880_at) / RFU 11764098_at / Fold change /veh 11764098_at / RFU SAMD14 (11745864_x_at) / Fold change /veh SAMD14 (11745864_x_at) / RFU NPB (11741838_a_at) / Fold change /veh NPB (11741838_a_at) / RFU TMPRSS6 (11731388_a_at) / Fold change /veh TMPRSS6 (11731388_a_at) / RFU KRTAP10-2 (11738614_at) / Fold change /veh KRTAP10-2 (11738614_at) / RFU ARHGAP8 /// PRR5-ARHGAP8 (11727945_x_at) / Fold change /veh ARHGAP8 /// PRR5-ARHGAP8 (11727945_x_at) / RFU KRTAP5-7 /// NADSYN1 (11734609_at) / Fold change /veh KRTAP5-7 /// NADSYN1 (11734609_at) / RFU RASL12 (11751679_a_at) / Fold change /veh RASL12 (11751679_a_at) / RFU CDKN2B (11736163_a_at) / Fold change /veh CDKN2B (11736163_a_at) / RFU PRF1 (11729649_at) / Fold change /veh PRF1 (11729649_at) / RFU, ZNF638 /// ZNF638-IT1 / Fold change vs veh, ZNF638 /// ZNF638-IT1 / RFU, PANK3 / Fold change vs veh, PANK3 / RFU, SH3YL1 / Fold change vs veh, SH3YL1 / RFU, ZEB2 / Fold change vs veh, ZEB2 / RFU, NRIP1 / Fold change vs veh, NRIP1 / RFU, PTTG1IP / Fold change vs veh, PTTG1IP / RFU, CAPN2 / Fold change vs veh, CAPN2 / RFU, MED14 / Fold change vs veh, MED14 / RFU, SNORA58 / Fold change vs veh, SNORA58 / RFU, C1orf63 / Fold change vs veh, C1orf63 / RFU, LRRFIP1 / Fold change vs veh, LRRFIP1 / RFU, NDUFAF7 / Fold change vs veh, NDUFAF7 / RFU, SLC12A2 / Fold change vs veh, SLC12A2 / RFU, IBTK / Fold change vs veh, IBTK / RFU, ESF1 / Fold change vs veh, ESF1 / Fold change vs veh, TMEM50B / RFU, TAOK1 / Fold change vs veh, TAOK1 / RFU, ACBD3 / Fold change vs veh, ACBD3 / RFU, TMA16 / Fold change vs veh, TMA16 / RFU, RWDD3 / Fold change vs veh, RWDD3 / RFU, BCAT1 / Fold change vs veh, BCAT1 / RFU, EDEM3 / Fold change vs veh, EDEM3 / RFU, TMEM33 / Fold change vs veh, TMEM33 / RFU, WDR75 / Fold change vs veh, WDR75 / RFU, AHCTF1 / Fold change vs veh, AHCTF1 / RFU, TFRC / Fold change vs veh, TFRC / RFU, ZDHHC17 / Fold change vs veh, ZDHHC17 / RFU, NOM1 / Fold change vs veh, NOM1 / RFU, ARL8B / Fold change vs veh, ARL8B / RFU, ZBTB11 / Fold change vs veh, ZBTB11 / RFU, TAMM41 / Fold change vs veh, TAMM41 / RFU, KIAA1704 /// LOC100996395 / Fold change vs veh, KIAA1704 /// LOC100996395 / RFU, ING1 / Fold change vs veh, ING1 / RFU, TRMT61B / Fold change vs veh, TRMT61B / RFU, FUBP3 / Fold change vs veh, FUBP3 / RFU, TP53 / Fold change vs veh, TP53 / RFU, TNKS2 / Fold change vs veh, TNKS2 / RFU, ZFP14 / Fold change vs veh, ZFP14 / RFU, ACTR2 / Fold change vs veh, ACTR2 / RFU, PPP3R1 / Fold change vs veh, PPP3R1 / RFU, PIK3R1 / Fold change vs veh, PIK3R1 / RFU, HNRNPA1 / Fold change vs veh, HNRNPA1 / RFU, RNF170 / Fold change vs veh, RNF170 / RFU, ZNF28 / Fold change vs veh, ZNF28 / RFU, RNGTT / Fold change vs veh, RNGTT / RFU, OGT / Fold change vs veh, OGT / RFU, BRD1 / Fold change vs veh, BRD1 / RFU, MARS / Fold change vs veh, MARS / RFU, ZNF655 / Fold change vs veh, ZNF655 / RFU, FAHD1 / Fold change vs veh, FAHD1 / RFU, BDP1 / Fold change vs veh, BDP1 / RFU, LRRCC1 / Fold change vs veh, LRRCC1 / RFU, ARID1A / Fold change vs veh, ARID1A / RFU, ZNF146 / Fold change vs veh, ZNF146 / RFU, ZNF330 / Fold change vs veh, ZNF330 / RFU, GPN3 / Fold change vs veh, GPN3 / RFU, C9orf123 / Fold change vs veh, C9orf123 / RFU, N4BP2L2 / Fold change vs veh, N4BP2L2 / RFU, ARFIP1 / Fold change vs veh, ARFIP1 / RFU, FAM179B / Fold change vs veh, FAM179B / RFU, BCL10 / Fold change vs veh, BCL10 / RFU, UHRF1BP1L / Fold change vs veh, UHRF1BP1L / RFU, BET1 / Fold change vs veh, BET1 / RFU, CNOT2 / Fold change vs veh, CNOT2 / RFU, ZNF268 / Fold change vs veh, ZNF268 / Fold change vs veh, ZNF507 / RFU, DGCR2 / Fold change vs veh, DGCR2 / RFU, WDSUB1 / Fold change vs veh, WDSUB1 / Fold change vs veh, HSP90B1 /// MIR3652 / RFU, ADSS / Fold change vs veh, ADSS / RFU, GK / Fold change vs veh, GK / RFU, ZNF148 / Fold change vs veh, ZNF148 / RFU, TAF9 / Fold change vs veh, TAF9 / RFU, SLC1A5 / Fold change vs veh, SLC1A5 / RFU, SLMO2 / Fold change vs veh, SLMO2 / RFU, ABCC4 / Fold change vs veh, ABCC4 / RFU, LOC101060439 /// RAP1B / Fold change vs veh, LOC101060439 /// RAP1B / RFU, RFX7 / Fold change vs veh, RFX7 / RFU, GTPBP10 / Fold change vs veh, GTPBP10 / RFU, CNEP1R1 / Fold change vs veh, CNEP1R1 / RFU, BIVM-ERCC5 /// ERCC5 / Fold change vs veh, BIVM-ERCC5 /// ERCC5 / RFU, ILF3 / Fold change vs veh, ILF3 / RFU 11762660_at / Fold change /veh 11762660_at / RFU VCAN (11757783_s_at) / Fold change /veh VCAN (11757783_s_at) / RFU DDX43 (11728927_at) / Fold change /veh DDX43 (11728927_at) / RFU KRT8 (11758188_x_at) / Fold change /veh KRT8 (11758188_x_at) / RFU NKD1 (11759106_at) / Fold change /veh NKD1 (11759106_at) / RFU SRD5A1 (11742802_a_at) / Fold change /veh SRD5A1 (11742802_a_at) / RFU TPSAB1 /// TPSB2 (11721975_s_at) / Fold change /veh TPSAB1 /// TPSB2 (11721975_s_at) / RFU GSTM3 (11746129_a_at) / Fold change /veh GSTM3 (11746129_a_at) / RFU IL23R (11737362_x_at) / Fold change /veh IL23R (11737362_x_at) / RFU TMEM51 (11727254_a_at) / Fold change /veh TMEM51 (11727254_a_at) / RFU PIWIL2 (11732686_x_at) / Fold change /veh PIWIL2 (11732686_x_at) / RFU ORM1 (11744905_x_at) / Fold change /veh ORM1 (11744905_x_at) / RFU CCDC152 (11743942_at) / Fold change /veh CCDC152 (11743942_at) / RFU ECM1 (11717891_a_at) / Fold change /veh ECM1 (11717891_a_at) / RFU IL23R (11748794_a_at) / Fold change /veh IL23R (11748794_a_at) / RFU TNFAIP8L3 (11732012_x_at) / Fold change /veh TNFAIP8L3 (11732012_x_at) / RFU MBOAT4 (11741988_at) / Fold change /veh MBOAT4 (11741988_at) / RFU 11764193_at / Fold change /veh 11764193_at / RFU TMEM53 (11763286_at) / Fold change /veh TMEM53 (11763286_at) / RFU MAGEB2 (11727129_at) / Fold change /veh MAGEB2 (11727129_at) / RFU TMEM200A (11744735_a_at) / Fold change /veh TMEM200A (11744735_a_at) / RFU CCDC152 (11751479_a_at) / Fold change /veh CCDC152 (11751479_a_at) / RFU FAM211A (11726209_a_at) / Fold change /veh FAM211A (11726209_a_at) / RFU RGS16 (11746705_a_at) / Fold change /veh RGS16 (11746705_a_at) / RFU VCAN (11755009_s_at) / Fold change /veh VCAN (11755009_s_at) / RFU RHOB (11743442_s_at) / Fold change /veh RHOB (11743442_s_at) / RFU RGS16 (11720943_a_at) / Fold change /veh RGS16 (11720943_a_at) / RFU RGS16 (11720944_at) / Fold change /veh RGS16 (11720944_at) / RFU, VPS4B / Fold change vs veh, VPS4B / RFU, CREB1 / Fold change vs veh, CREB1 / RFU, DNAJC13 / Fold change vs veh, DNAJC13 / RFU, GNAQ / Fold change vs veh, GNAQ / RFU, CDK5R1 / Fold change vs veh, CDK5R1 / RFU, ZRANB3 / Fold change vs veh, ZRANB3 / RFU, CUL4A / Fold change vs veh, CUL4A / RFU, CCNY / Fold change vs veh, CCNY / RFU, UFL1 / Fold change vs veh, UFL1 / RFU, COG3 / Fold change vs veh, COG3 / RFU, DIAPH2 / Fold change vs veh, DIAPH2 / RFU, SKA2 / Fold change vs veh, SKA2 / RFU, AFF3 / Fold change vs veh, AFF3 / RFU, LMF1 / Fold change vs veh, LMF1 / RFU, IPO11 / Fold change vs veh, IPO11 / RFU, DFFB / Fold change vs veh, DFFB / RFU, FOXP1 / Fold change vs veh, FOXP1 / RFU, CARD8 / Fold change vs veh, CARD8 / RFU, STRN3 / Fold change vs veh, STRN3 / RFU, ADK / Fold change vs veh, ADK / RFU, RASSF2 / Fold change vs veh, RASSF2 / RFU, WIPF1 / Fold change vs veh, WIPF1 / RFU, LARP1B / Fold change vs veh, LARP1B / RFU, RASA1 / Fold change vs veh, RASA1 / RFU, RB1 / Fold change vs veh, RB1 / RFU, PPFIA1 / Fold change vs veh, PPFIA1 / RFU, MAT2A / Fold change vs veh, MAT2A / RFU, CCT5 / Fold change vs veh, CCT5 / RFU, WDR92 / Fold change vs veh, WDR92 / RFU, CUX1 / Fold change vs veh, CUX1 / RFU, TTC7A / Fold change vs veh, TTC7A / RFU, TMEM135 / Fold change vs veh, TMEM135 / RFU, DEPTOR / Fold change vs veh, DEPTOR / RFU, CPM / Fold change vs veh, CPM / RFU, DNAJB6 / Fold change vs veh, DNAJB6 / RFU, CACNA2D3 / Fold change vs veh, CACNA2D3 / RFU, DTX4 / Fold change vs veh, DTX4 / RFU, TFCP2 / Fold change vs veh, TFCP2 / RFU, GMCL1 /// GMCL1P1 / Fold change vs veh, GMCL1 /// GMCL1P1 / RFU, AEBP2 / Fold change vs veh, AEBP2 / RFU, SNHG1 /// SNORD22 /// SNORD25 /// SNORD26 /// SNORD27 /// SNORD28 /// SNORD29 /// SNORD31 / Fold change vs veh, SNHG1 /// SNORD22 /// SNORD25 /// SNORD26 /// SNORD27 /// SNORD28 /// SNORD29 /// SNORD31 / Fold change (Aza/veh), C12orf56 (ProbeSet 11735607_a_at) / Fold change (ACY-1035/veh), C12orf56 (ProbeSet 11735607_a_at) / Fold change (Aza/veh), FGFR1OP (ProbeSet 11751329_s_at) / Fold change (ACY-1035/veh), FGFR1OP (ProbeSet 11751329_s_at) / Fold change (Aza/veh), VPS36 (ProbeSet 11739960_a_at) / Fold change (ACY-1035/veh), VPS36 (ProbeSet 11739960_a_at) / RFU SYPL1 (11715823_x_at) / Fold change /veh SYPL1 (11715823_x_at) / RFU IGFBP7 (11715501_s_at) / Fold change /veh IGFBP7 (11715501_s_at) / RFU REEP3 (11722064_at) / Fold change /veh REEP3 (11722064_at) / RFU IGLL1 (11728026_x_at) / Fold change /veh IGLL1 (11728026_x_at): dose or concentration left out as unconfirmed
Conditions: ProbeSet 11739696_s_at; LIST D

Compound: Nc1ncn([C@@H]2O[C@H](CO)[C@@H](O)[C@H]2O)c(=O)n1 [azacitidine]
- Fold change vs veh, AFF3: 0.52

— publication PMC5218480 (PLoS ONE, 2017)
